Results as given in patent US20230192617A1, “AZABICYCLIC(THIO)AMIDES AS FUNGICIDAL COMPOUNDS” (Bayer CropScience Aktiengesellschaft, priority 2020, published 2023).

Tests used:
[1] = tested on: Colletotrichum lindemuthianum; assay: B-8. Colletotrichum lindemuthianum in vitro cell test; format: cell-based; details: 144 h, 20 ppm of active ingredient, 6 days incubation, liquid culture, absorbance, read-out: efficacy (inhibition of fungal growth)
Summary of the method: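 Liquid-culture germination/growth test: compounds in ≤1% final DMSO were added to spore-containing medium. Fungal growth was quantified spectrophotometrically after 6 days of incubation and expressed as inhibition versus untreated controls.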

[2] = tested on: Pyrenophora teres; assay: B-10. Pyrenophora teres in vitro cell test; format: cell-based; details: 144 h, 20 ppm of active ingredient, 6 days incubation, liquid culture, absorbance, read-out: efficacy (inhibition of fungal growth)
Summary of the method: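 Liquid-culture assay on a P. teres spore suspension with compounds added to the medium from DMSO solutions, final DMSO ≤1%. Mycelium growth read spectrometrically after 6 days. Inhibition calculated from absorbance against untreated control wells.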

[3] = tested on: Botrytis cinerea; assay: In vivo preventive test on Botrytis cinerea (grey mould); details: 500 ppm of active ingredient, preventive spray on gherkin or cabbage, evaluated 4 to 5 days after inoculation, read-out: efficacy
Summary of the method: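 Preventive spray on cabbage or gherkin seedlings, with compound formulated in DMSO/acetone/Tween 80 and water-diluted, preceded spore inoculation by 24 hours. Cabbage was held 4 to 5 days at 20° C., 100% relative humidity; gherkin 4 to 5 days at 17° C., 90% relative humidity.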

[4] = tested on: Botrytis cinerea; assay: B-11. Botrytis cinerea in vitro cell test; format: cell-based; details: 144 h, 20 ppm of active ingredient, 6 days incubation, liquid culture, absorbance, read-out: efficacy (inhibition of fungal growth)
Summary of the method: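 B. cinerea spores were grown in liquid culture with compound (DMSO ≤1% final). Mycelium growth was measured spectrometrically after 6 days, with inhibition taken as absorbance relative to untreated control wells.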

[5] = tested on: Alternaria alternata; assay: Alternaria alternata in vitro cell test; format: cell-based; details: 120 h, 20 ppm of active ingredient, liquid culture, 5 days incubation, spectrometric measurement of mycelium growth, read-out: efficacy (inhibition of fungal growth)
Summary of the method: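 Spectrometric readout of mycelial growth after 5-day incubation gauged compound effects on spore germination and growth of A. alternata in liquid medium. Compounds were delivered in DMSO at ≤1% final. Absorbance was compared with untreated controls to give inhibition.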

[6] = tested on: Sphaerotheca fuliginea; assay: In vivo preventive test on Sphaerotheca fuliginea (powdery mildew on cucurbits); details: Podosphaera fuliginea, 192 h; 500 ppm of active ingredient; preventive spray on gherkin; evaluated 8 days after inoculation; read-out: efficacy
Summary of the method: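 This is a preventive spray test on gherkin seedlings, with compound formulated in DMSO/acetone/Tween 80 in water and solvent-only controls. Spore inoculation followed one day after treatment. Incubation lasted 8 days at 20 °C, 70–80% RH.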

[7] = Measurement of Log P values by HPLC on reversed phase columns (EEC directive 79/831 Annex V.A8); format: physicochemical; details: reversed phase HPLC column, method [a]: LC-UV, acidic range, 0.1% formic acid in water and acetonitrile as eluent
Summary of the method: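 Log P derived from retention on reversed-phase columns (EEC directive 79/831 Annex V.A8), LC-UV, acetonitrile gradient 10% to 95% against water containing 0.1% formic acid, 0.001 M ammonium acetate, or 0.1% phosphoric acid; several values per method separated by "+".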

[8] = tested on: Alternaria brassicae; assay: In vivo preventive test on Alternaria brassicae (leaf spot on radish or cabbage); details: 500 ppm of active ingredient, preventive spray on radish or cabbage, evaluated 3 to 4 days after inoculation, read-out: efficacy
Summary of the method: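 Protective spray on young radish or cabbage: actives in water diluted from DMSO/acetone/Tween 80, with solvent-only controls. Leaves were challenged after 24 h with a spore suspension, and plants were held at 100% RH, 20 °C for 3 to 4 days.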

Row | Compound | chromatographic logP [7] | inhibition at 20 ppm [1] [%] | inhibition at 20 ppm [2] [%] | pest or weed control at 500 ppm [3] [%] | inhibition at 20 ppm [4] [%] | inhibition at 20 ppm [5] [%] | pest or weed control at 500 ppm [6] [%] | pest or weed control at 500 ppm [8] [%]
1 | Cc1ccc(C(F)(F)CNC(=O)c2c(Oc3cccc(Cl)c3)nnc3c2CCCC3)c(Cl)c1 [I-139] | 3.89 | 90 to 100 | 90 to 100 | 90 to 100 | 90 to 100 | 90 to 100 | 90 to 100 | 90 to 100
2 | Cc1ccc(C(F)(F)CNC(=O)c2c(Oc3cccc(C4CC4)c3F)nnc3c2CCCC3)c(Cl)c1 [I-141] | 4.17 | 90 to 100 | 90 to 100 | 90 to 100 | 90 to 100 | 90 to 100 | 90 to 100 | 90 to 100
3 | Cc1ccc(C(F)(F)CNC(=O)c2c(Oc3cccc(C(F)(F)F)c3)nnc3c2CCC3)c(Cl)c1 [I-142] | 3.94 | 90 to 100 | 90 to 100 | 90 to 100 | 90 to 100 | 90 to 100 | 90 to 100 | 90 to 100
4 | Cc1cc(Cl)ccc1C(F)(F)CNC(=O)c1c(Oc2cccc(C(F)(F)F)c2)nnc2c1CCCC2 [I-145] | 4.28 | 90 to 100 | 90 to 100 | 90 to 100 | 90 to 100 | 90 to 100 | 90 to 100 | 90 to 100
5 | Cc1cc(Br)ccc1C(F)(F)CNC(=O)c1c(Oc2cccc(C(F)F)c2)nnc2c1CCCC2 [I-150] | 3.84 | 90 to 100 | 90 to 100 | 90 to 100 | 90 to 100 | 90 to 100 | 90 to 100 | 90 to 100
6 | Cc1cc(Br)ccc1C(F)(F)CNC(=O)c1c(Oc2cccc(Cl)c2)nnc2c1CCCC2 [I-151] | 4.17 | 90 to 100 | 90 to 100 | 90 to 100 | 90 to 100 | 90 to 100 | 90 to 100 | 90 to 100
7 | O=C(NCC(F)(F)c1ccc(Br)cc1Cl)c1c(Oc2cccc(C(F)(F)F)c2)nnc2c1CCC2 [I-212] | 4.17 | 90 to 100 | 90 to 100 | 90 to 100 | 90 to 100 | 90 to 100 | 90 to 100 | 90 to 100
8 | Cc1ccc(C(F)(F)CNC(=O)c2c(Oc3cccc(Br)c3)nnc3ccccc23)c(C)c1 [I-216] | 4.38 | 90 to 100 | 90 to 100 | 90 to 100 | 90 to 100 | 90 to 100 | 90 to 100 | 90 to 100
9 | Cc1ccc(C(F)(F)CNC(=O)c2c(Oc3cccc(C(F)F)c3)cnc3ccccc23)c(C)c1 [I-220] | 4.08 | 90 to 100 | 90 to 100 | 90 to 100 | 90 to 100 | 90 to 100 | 90 to 100 | 90 to 100
10 | Cc1cccc(Oc2cnc3ccccc3c2C(=O)NCC(F)(F)c2ccc(C)cc2C)c1 [I-222] | 4.3 | 90 to 100 | 90 to 100 | 90 to 100 | 90 to 100 | 90 to 100 | 90 to 100 | 90 to 100
11 | Cc1ccc(C(F)(F)CNC(=O)c2c(Oc3cccc(Br)c3F)nnc3ccccc23)c(C)c1 [I-227] | 4.4 | 90 to 100 | 90 to 100 | 90 to 100 | 90 to 100 | 90 to 100 | 90 to 100 | 90 to 100
12 | O=C(NCC(F)(F)c1ccc(Cl)cc1Cl)c1c(Oc2cccc(C(F)(F)F)c2)nnc2c1COCC2 [I-228] | 3.85 | 90 to 100 | 90 to 100 | 90 to 100 | 90 to 100 | 90 to 100 | 90 to 100 | 90 to 100

The next lines start with results.

Row | chromatographic logP [7] | Compound | inhibition at 20 ppm [1] [%] | inhibition at 20 ppm [2] [%] | pest or weed control at 500 ppm [3] [%] | inhibition at 20 ppm [4] [%] | inhibition at 20 ppm [5] [%] | pest or weed control at 500 ppm [6] [%] | pest or weed control at 500 ppm [8] [%]
13 | 3.94 | Cc1ccc(C(F)(F)CNC(=O)c2c(Oc3cccc(Cl)c3F)nnc3c2CCCC3)c(Cl)c1 [I-140, 3-(3-chloro-2-fluoro-phenoxy)-N-[2-(2-chloro-4-methyl-phenyl)-2,2-difluoro-ethyl]-5,6,7,8-tetrahydrocinnoline-4-carboxamide] | 90 to 100 | 90 to 100 | 90 to 100 | 90 to 100 | 90 to 100 | 90 to 100 | 90 to 100
14 | 3.84 | Cc1ccc(C(F)(F)CNC(=O)c2c(Oc3cccc(Cl)c3F)nnc3c2CCC3)c(Cl)c1 [I-143] | 90 to 100 | 90 to 100 | 90 to 100 | 90 to 100 | 90 to 100 | 90 to 100 | 90 to 100
15 | 4.05 | Cc1ccc(C(F)(F)CNC(=O)c2c(Oc3cccc(C4CC4)c3F)nnc3c2CCC3)c(Cl)c1 [I-144] | 90 to 100 | 90 to 100 | 90 to 100 | 90 to 100 | 90 to 100 | 90 to 100 | 90 to 100
16 | 4.11 | Cc1cc(Cl)ccc1C(F)(F)CNC(=O)c1c(Oc2cccc(Cl)c2)nnc2c1CCCC2 [I-146] | 70 to 79 | 90 to 100 | 90 to 100 | 90 to 100 | 90 to 100 | 90 to 100 | 90 to 100
17 | 4 | Cc1cc(Cl)ccc1C(F)(F)CNC(=O)c1c(Oc2cccc(Cl)c2F)nnc2c1CCC2 [I-148] | 80 to 89 | 90 to 100 | 90 to 100 | 90 to 100 | 90 to 100 | 90 to 100 | 90 to 100
18 | 3.94 | O=C(NCC(F)c1ccc(Cl)cc1Cl)c1c(Oc2cccc(Cl)c2F)nnc2c1CCCC2 (centres unmarked) [I-149] | 90 to 100 | 90 to 100 | 90 to 100 | 90 to 100 | 90 to 100 | 90 to 100 | 90 to 100
19 | 4.44 | Cc1cc(Br)ccc1C(F)(F)CNC(=O)c1c(Oc2cccc(Cl)c2F)nnc2c1CCCC2 [I-152] | 90 to 100 | 90 to 100 | 90 to 100 | 90 to 100 | 90 to 100 | 90 to 100 | 90 to 100
20 | 4 | O=C(NCC(F)c1ccc(Cl)cc1Cl)c1c(Oc2cccc(C(F)(F)F)c2)nnc2c1CCC2 (centres unmarked) [I-186] | 90 to 100 | 90 to 100 | 90 to 100 | 90 to 100 | 90 to 100 | 90 to 100 | 90 to 100
21 | 3.89 | O=C(NCC(F)c1ccc(Cl)cc1Cl)c1c(Oc2cccc(Cl)c2F)nnc2c1CCC2 (centres unmarked) [I-188] | 90 to 100 | 90 to 100 | 90 to 100 | 90 to 100 | 90 to 100 | 90 to 100 | 90 to 100
22 | 4.05 | O=C(NCC(F)(F)c1ccc(Br)cc1Cl)c1c(Oc2cccc(Cl)c2F)nnc2c1CCC2 [I-213] | 90 to 100 | 90 to 100 | 90 to 100 | 90 to 100 | 90 to 100 | 90 to 100 | 90 to 100
